For data set [1], the target named is T1, Tyrosine-protein phosphatase non-receptor type 1 (Homo sapiens) (UniProt P18031).
T1 sequence (whole entry): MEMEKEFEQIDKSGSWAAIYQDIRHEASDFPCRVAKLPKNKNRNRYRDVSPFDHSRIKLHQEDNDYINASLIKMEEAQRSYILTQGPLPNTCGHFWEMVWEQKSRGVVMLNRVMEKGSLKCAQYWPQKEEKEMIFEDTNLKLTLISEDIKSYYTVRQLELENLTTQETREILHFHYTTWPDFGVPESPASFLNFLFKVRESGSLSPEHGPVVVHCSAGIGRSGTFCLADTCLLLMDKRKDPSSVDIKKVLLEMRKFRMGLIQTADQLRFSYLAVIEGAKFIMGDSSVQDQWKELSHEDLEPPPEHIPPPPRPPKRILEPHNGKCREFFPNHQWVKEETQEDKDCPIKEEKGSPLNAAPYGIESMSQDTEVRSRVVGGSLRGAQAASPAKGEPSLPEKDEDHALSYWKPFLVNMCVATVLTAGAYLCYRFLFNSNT
In words: Inhibition of recombinant human PTP1B expressed in Escherichia coli expression system using pNPP as substrate at 10 uM preincubated for 30 mins followed by substrate addition by […].

Data set [2] concerns the target T1, Tyrosine-protein phosphatase non-receptor type 1 (Homo sapiens). In words: Inhibition of recombinant human PTP1B expressed in Escherichia coli expression system using pNPP as substrate at 100 uM preincubated for 30 mins followed by substrate addition by […].
The target of data set [3] is T2, Tyrosine-protein phosphatase non-receptor type 1 (Homo sapiens, UniProt P18031).
T2 sequence (P18031 whole entry): T1 sequence (whole entry)
In words: Inhibition of recombinant human PTP1B expressed in Escherichia coli expression system using pNPP as substrate preincubated for 30 mins followed by substrate addition by […].

The nature of data set [4]: Intrinsic clearance in mouse liver microsomes at 1 uM preincubated for 5 mins followed by NADPH addition measured up to 30 mins by LC-MS/MS analysis. Type of data set: ADME. Particulars: 0.5 h. Background: Microsomes from liver hold many membrane-bound enzymes, among them those of drug oxidation.
The nature of data set [5]: Intrinsic clearance in rat liver microsomes at 1 uM preincubated for 5 mins followed by NADPH addition measured up to 30 mins by LC-MS/MS analysis. Particulars: 0.5 h. The data set is classed as ADME.
Data set [6] is described as follows: Intrinsic permeability of compound at 50 uM at pH 7.4 after 16 hrs by PAMPA assay. Type of data set: ADME. (In general: In PAMPA a lipid-coated filter parts donor from acceptor wells.)

From ChEMBL document CHEMBL3870366, “Rational design, synthesis, and structure-activity relationships of 5-amino-1H-pyrazole-4-carboxylic acid derivatives as protein tyrosine phosphatase 1B inhibitors” (Bioorg Med Chem, 2017) come the findings set out here.

Turning to `COc1ccc(C(=O)C(Cc2ccc(-n3ncc(C(=O)O)c3N)cc2)c2ccc(OC)cc2)cc1` (stereo not given), the inhibition (usually how much of the control response was suppressed) in data set [1] is 4.8%; in data set [2], 39.7%.

`COc1ccc(C(Cc2ccc(-n3ncc(C(=O)O)c3N)cc2)c2nc(-c3cccc(F)c3)no2)cc1` (stereo not given): the Ki (as a rule, a measure of affinity in units of concentration, obtained from inhibition or displacement) in data set [3] is 8.6 µM. For the same compound, the inhibition in data set [1] was 22%; in data set [2], 93.3%. The same compound registered a CLH in data set [4] of 1.3 mL/min/g. Besides, the “intrinsic clearance (CLint)” value in data set [5] turned out to be 3 mL/min/g.

Take `CC(C)NCC(O)COc1cccc2ccccc12` (stereo not given) [PROPRANOLOL]: in data set [6], the Papp (commonly the rate of passage across a membrane or cell layer, normalised by area and donor concentration) at 16 h, 50 µM is 16.6 ×10⁻⁶ cm/s.

On to `Nc1c(C(=O)O)cnn1-c1ccc(CC(c2ccc(F)cc2)c2nc(-c3cccc(F)c3)no2)cc1` (stereo not given), for which the inhibition came out at 19% in data set [1] and 94.9% in data set [2].

On to `Nc1c(C(=O)O)cnn1-c1ccc(CN(Cc2ccc(Cl)cc2)Cc2ccc(F)c(F)c2)cc1`, for which, in data set [3], the Ki came to 11 µM. The inhibition came out at 22.5% in data set [1] and 97.2% in data set [2]. The compound further gave a CLH in data set [4] of 1.2 mL/min/g. Further, the “intrinsic clearance (CLint)” value in data set [5] stood at 2 mL/min/g. Moreover, the Papp at 16 h, 50 µM in data set [6] was determined as 49.8 ×10⁻⁶ cm/s.

As for `Nc1c(C(=O)O)cnn1-c1ccc(CC(C(=O)c2ccc(Cl)cc2)c2ccc(F)c(F)c2)cc1` (stereo not given), the inhibition in data set [1] came out at 16.2%; in data set [2] it was 91.5%. Also, in data set [6], the Papp at 16 h, 50 µM is 1.5 ×10⁻⁶ cm/s.

As to `COc1ccc(-c2noc(C(Cc3ccc(-n4ncc(C(=O)O)c4N)cc3)c3ccc(F)cc3)n2)cc1` (stereo not given), the Ki in data set [3] worked out at 8.1 µM. The results for the inhibition in data set [1] and in data set [2] were 25.8% and 95.5%, respectively. This compound returned a CLH in data set [4] of 1.5 mL/min/g. In data set [5], the “intrinsic clearance (CLint)” value turned out to be 3 mL/min/g. Further, in data set [6], the Papp at 16 h, 50 µM is 0.4 ×10⁻⁶ cm/s.

As for `Nc1c(C(=O)O)cnn1-c1ccc(CN(Cc2ccc(F)cc2)Cc2ccc(F)cc2)cc1`, the inhibition in data set [1] was 40.8%; in data set [2], 98.4%.

As for `Nc1c(C(=O)O)cnn1-c1ccc(CC(C(=O)c2ccc(F)cc2)c2ccccc2)cc1` (stereo not given), the inhibition in data set [1] worked out at 12.1%; in data set [2], 36.8%.

As for `COc1ccc(CN(Cc2ccc(F)cc2)Cc2ccc(-n3ncc(C(=O)O)c3N)cc2)cc1`, the inhibition in data set [1] is 21.6%; in data set [2] it was 82.2%.

As to `COc1ccc(CN(Cc2ccc(OC)cc2)Cc2ccc(-n3ncc(C(=O)O)c3N)cc2)cc1`, in data set [3], the Ki worked out at 7.1 µM. In addition, the inhibition in data set [1] came to 9.9%; in data set [2], 76.9%. Further, the CLH in data set [4] worked out at 5.6 mL/min/g. In addition, the “intrinsic clearance (CLint)” value in data set [5] came out at 2.5 mL/min/g. For the same compound, the Papp at 16 h, 50 µM in data set [6] is 12.5 ×10⁻⁶ cm/s.

For the compound `Nc1c(C(=O)O)cnn1-c1ccc(CC(c2ccc(F)cc2)c2nc(-c3ccc(Cl)cc3)no2)cc1` (stereo not given), in data set [3], the Ki is 4.6 µM. The inhibition in data set [1] worked out at 30.8%; in data set [2], 97.3%. The same compound displayed a CLH in data set [4] of 0 mL/min/g. For the same compound, the “intrinsic clearance (CLint)” value in data set [5] was 3 mL/min/g. In data set [6], this compound came in with a Papp at 16 h, 50 µM of 9.1 ×10⁻⁶ cm/s.

Take `Nc1c(C(=O)O)cnn1-c1ccc(CN(Cc2ccc(F)cc2)Cc2ccc(Cl)cc2)cc1`: in data set [3], the Ki stood at 4.5 µM. The inhibition in data set [1] came out at 43.8%; in data set [2], 97.4%. In data set [4], this compound registered a CLH of 2.1 mL/min/g. The “intrinsic clearance (CLint)” value in data set [5] is 3 mL/min/g. The Papp at 16 h, 50 µM in data set [6] came out at 10.6 ×10⁻⁶ cm/s.

As to `Nc1c(C(=O)O)cnn1-c1ccc(CC(C(=O)c2ccc(Cl)cc2)c2ccc(F)cc2)cc1` (stereo not given), the inhibition in data set [1] stood at 18.8%; in data set [2], 89.5%.

As for `Nc1c(C(=O)O)cnn1-c1ccc(CC(C(=O)c2ccc(F)cc2)c2ccc(F)cc2)cc1` (stereo not given), the inhibition in data set [1] is 0.8%; in data set [2] it was 34.4%.

Regarding `Nc1c(C(=O)O)cnn1-c1ccc(CC(c2ccccc2)c2nc(-c3ccccc3)no2)cc1` (stereo not given), the figures for the inhibition in data set [1] and in data set [2] were 12.2% and 64%, respectively.

Turning to `COc1ccc(CN(Cc2ccc(F)cc2)Cc2ccc(-n3ncc(C(=O)O)c3N)cc2)cc1OC`, in data set [3], the Ki came out at 4.1 µM. Besides, the inhibition stood at 35.1% in data set [1] and 94% in data set [2]. The compound further showed a CLH in data set [4] of 7.4 mL/min/g. For the same compound, in data set [5], the “intrinsic clearance (CLint)” value worked out at 4 mL/min/g.

Turning to `Nc1c(C(=O)O)cnn1-c1ccc(CC(C(=O)c2ccc(F)cc2)c2ccc(F)c(F)c2)cc1` (stereo not given), the values for the inhibition in data set [1] and in data set [2] were 21.6% and 82.2%, respectively.

Take `Nc1c(C(=O)O)cnn1-c1ccc(CN(Cc2ccc(F)cc2)Cc2ccc(F)c(F)c2)cc1`: the Ki in data set [3] was found to be 13 µM. Further, the inhibition was 19.5% in data set [1] and 95.2% in data set [2]. The same compound had a CLH in data set [4] of 2.7 mL/min/g. The “intrinsic clearance (CLint)” value in data set [5] was found to be 3 mL/min/g. This compound also returned a Papp at 16 h, 50 µM in data set [6] of 27.9 ×10⁻⁶ cm/s.

`Nc1c(C(=O)O)cnn1-c1ccc(CC(C(=O)c2ccccc2)c2ccccc2)cc1` (stereo not given): the inhibition in data set [1] stood at 9.6%; in data set [2], 32.6%.

For the compound `Nc1c(C(=O)O)cnn1-c1ccc(CC(C(=O)c2ccccc2)c2ccc(F)cc2)cc1` (stereo not given), the inhibition in data set [1] amounted to 19%; in data set [2], 43.9%.

In the case of `Nc1c(C(=O)O)cnn1-c1ccc(CN(Cc2ccccc2)Cc2ccccc2)cc1`, the inhibition came out at 8.9% in data set [1] and 64% in data set [2].

As to `COc1ccc(C(=O)C(Cc2ccc(-n3ncc(C(=O)O)c3N)cc2)c2ccc(F)cc2)cc1` (stereo not given), the values for the inhibition in data set [1] and in data set [2] were 13.5% and 58.5%, respectively.

As to `COc1ccc(C(Cc2ccc(-n3ncc(C(=O)O)c3N)cc2)c2nc(-c3ccc(Cl)cc3)no2)cc1` (stereo not given), the inhibitory constant (Ki) in data set [3] came to 4.4 µM. In addition, the inhibition in data set [1] came out at 33.7%; in data set [2] it was 98.3%. In data set [4], this compound came in with a CLH of 1.5 mL/min/g. Also, in data set [5], the “intrinsic clearance (CLint)” value was 2 mL/min/g.

Take `COc1ccc(CN(Cc2ccc(C)cc2)Cc2ccc(-n3ncc(C(=O)O)c3N)cc2)cc1`: the values for the inhibition in data set [1] and in data set [2] were 5% and 49.7%, respectively.

`Nc1c(C(=O)O)cnn1-c1ccc(CC(C(=O)c2ccccc2)c2ccc(F)c(F)c2)cc1` (stereo not given): the values for the inhibition in data set [1] and in data set [2] were 10.5% and 48.5%, respectively.
